Measurements from PubChem BioAssay (NCI).
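All cell lines were grown in 96-well plates and treated with compound for 48 hours. The concentration for 50% growth inhibition is given as GI50. TGI: total growth inhibition.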 *1 amine or outer side, *2 acyl side, *3 side chain or, on linkers, in order; H or OH if unused. Where a SMILES comes first, the peptide text is derived from it. Bridges are numbered along the chain shown (N, C = ends). [ ]: non-standard residue; d: D form. The star is where a group is joined. Phe(3-Me) = Cc1cccc(C[C@H](N)C(=O)O)c1; NH(4-Cl-2-F-phenyl) = Fc1cc(Cl)ccc1N*; Pro(4R-Me) = C[C@H]1CN[C@H](C(=O)O)C1; Hyp = O=C(O)[C@@H]1C[C@@H](O)CN1; aThr = C[C@H](O)[C@H](N)C(=O)O; Pip = O=C(O)[C@@H]1CCCCN1; CO = O=C([*:1])[*:2]

How the values were obtained:
Test in all cases: NCI tumour cell line growth inhibition, 48 h
[1] = system: A549 NSCLC
[2] = system: UACC-257 melanoma
[3] = system: SNB-19 CNS
[4] = system: KM12 colon
[5] = system: 786-0 renal
[6] = system: SF-295 CNS
[7] = system: SF-268 CNS
[8] = system: BT-549 breast
[9] = system: MOLT-4 leukemia
[10] = system: NCI-H460 lung

Compound | GI50 [1] [µM] | TGI [1] [µM] | GI50 [2] [µM] | TGI [2] [µM] | GI50 [3] [µM] | TGI [3] [µM] | GI50 [4] [µM] | TGI [4] [µM] | GI50 [5] [µM] | TGI [5] [µM] | GI50 [6] [µM] | TGI [6] [µM] | GI50 [7] [µM] | TGI [7] [µM] | GI50 [8] [µM] | TGI [8] [µM] | GI50 [9] [µM] | TGI [9] [µM] | GI50 [10] [µM] | TGI [10] [µM]
COc1ccc(C(=O)c2cc(OC)c(OC)c(OC)c2)cc1O | 0.0717 | > 100 | > 100 | > 100 | 0.268 | > 100 | < 0.0155 | > 100 | 0.914 | > 100 | 0.367 | > 100 | 0.0613 | > 100 | 0.0337 | > 100 | 0.0367 | > 100 | 0.0373 | > 100
NC(=NC1CCCCCC1)c1ccc(N2CCN(c3ccc(C(N)=NC4CCCCCC4)cc3)CC2)cc1 | 9.29 | > 50 | 9.75 | > 50 | 10.1 | 27.1 | 8.35 | 30.2 | 10.7 | 43.9 | 3.89 | 19.9 | 6.92 | 15 | 2.1 | 5.48 | 23.9 | > 50 | 3.65 | 16.8
C=C1C(=O)O[C@@H]2C[C@@H](C)[C@@H]3[C@@H](OC4OC(COC(C)=O)C(O)C(O)C4O)CC(=O)[C@@]3(C)C[C@H]12 (some centres undefined) |  | 22.3 |  | 3.49 |  | 45.1 |  | 22.9 |  | 0.883 |  | 31.3 |  | 44.7 |  | 3.13 |  | 7.4 |  | 28.7
COc1cc(-c2cc(-c3nc4ccccc4[nH]3)[nH]n2)cc(OC)c1OC | 2.43 | 15.1 | 2.1 | 6.12 | 17.8 | > 100 | 3.15 | 11.6 | 3.66 | 15.5 | 3.13 | 14.7 | 6.43 | 21.9 | 1.8 | 8.11 | 2.13 | 5.17 | 3.64 | 21.5
O=C(Nc1ccc(Nc2ccncc2)cc1)c1ccc(Nc2ccnc3ccc([N+](=O)[O-])cc23)cc1 | > 100 | > 100 | > 100 | > 100 | > 100 | > 100 | > 100 | > 100 | > 100 | > 100 |  |  | 29.9 | > 100 | > 100 | > 100 | > 100 | > 100 | 6.27 | > 100
COc1ccc(/C=C(\C#N)c2cc(OC)c3c(c2)OCO3)cc1 | < 0.0148 | 44.1 | 17 | 57 | 0.0278 | > 100 | < 0.01 | 1.66 | < 0.0215 | 17.2 | < 0.01 | 21 | < 0.01 | 52.6 | 0.0657 | 83.2 | 0.0402 | > 100 | < 0.01 | 4.28
CNC1NC(=O)c2ccccc2N1Cc1ccc(F)cc1 (centres undefined) |  | > 100 |  | > 100 |  | > 100 |  | > 100 |  | > 100 |  | > 100 |  | > 100 |  | > 100 |  | > 100 |  | > 100
CN(C)CCCn1c2c3ccccc3ccc2c2oc(=O)c3ccccc3c21 |  | 11 |  | 19.1 |  | 29.2 |  | 10.3 |  | 5.54 |  | 7.17 |  | 13.4 |  | > 57.8 |  | 5.19 |  | 6.64
COC[C@H]1OC(=O)c2coc3c2[C@@]1(C)C1=C(C3=O)[C@@H]2CCC(=O)[C@@]2(C)C[C@H]1OC(C)=O |  | > 100 |  | > 100 |  | > 100 |  | > 100 |  | > 100 |  | 63.1 |  | > 100 | 0.485 | 12.7 |  | 42.3 |  | > 100
CCC(C)/C=C(C)/C=C/C(=O)c1c(O)c(-c2ccc(O)cc2)c[nH]c1=O (centres undefined) | 4.3 | 20.1 | 4.25 | 16.4 | 5.43 | 19.8 | 3.41 | 12.4 | 4.33 | 16.7 | 2.89 | 13.7 | 3.19 | 14 | 4.42 | 15.3 | 2.73 | 15.1 | 3.04 | 8.82
Cc1ccc(NC2=C(Sc3ccc(Cl)cc3)C(=O)N(Cc3ccccc3)C2=O)cc1Cl | 3.38 | 15.9 | 7.37 | 30.3 | 6.03 | 28.9 | 31.1 | > 100 | 10.3 | 22.4 | 5.86 | > 100 | 6.26 | 93.7 | 10.4 | 24 | 10.5 | 26 | 5.75 | 39.8
O=C(O)c1ccc(NS(=O)(=O)c2cccc3cccnc23)cc1 | > 100 | > 100 | > 100 | > 100 | > 100 | > 100 | > 100 | > 100 | > 100 | > 100 | > 100 | > 100 | > 100 | > 100 | > 100 | > 100 | > 100 | > 100 | > 100 | > 100
CCc1oc2ccccc2c1C(=O)c1cc(Br)c(O)c(Br)c1 |  | > 100 |  | 42.8 |  | > 100 |  | 55.1 |  | 55.6 |  | 83.5 |  | 84.7 |  | 71.4 |  | 59.7 |  | 34.2
Cc1cccc(C[C@H](NC(=O)Nc2ccc(Cl)cc2F)C(=O)N[C@@H]2C(=O)N3C[C@H](O)C[C@H]3C(=O)N3CCCC[C@H]3C(=O)N[C@@H](C)C(=O)N3C[C@H](C)C[C@H]3C(=O)O[C@H]2C)c1 ({NH(4-Cl-2-F-phenyl)-CO}-[Phe(3-Me)][aThr][Hyp][Pip]A[Pro(4R-Me)]; ester 2-C) | 0.505 | 12.1 | 0.388 | 2.2 | 0.381 | 11.3 | 0.788 | 2.49 | 1.28 | 7.69 | 0.416 | 1.8 | 0.499 | 4.02 | 0.54 | 2.74 | 0.876 | 6.28 | 0.398 | 2.46
